Data from patent US9422243B2 (priority 2011, dated 2016).
Read-outs that look alike come from different tables or passages of the source.

What was measured:
[1] = in vivo; conditions: male, Balb, Nu/Nu, mouse, plasma, 10 mg/kg; for Vd / clearance: iv; for AUC / Cmax / half-life: po
[2] = mouse, 10 mg/kg, oral vs IV dose-normalized plasma AUC
[3] = system: BRCA mutations and breast, ovarian and prostate cancer; conditions: 19 patients with BRCA mutations and breast, monotherapy; cited from earlier work
[4] = system: Capan-1 human pancreatic cancer tumors; conditions: for T − C: time to reach 1 g
[5] = temozolomide 50 mg/kg oral, days 3, 4, 5, 6, 7 and 8
[6] = cpd. 1 100 mg/kg oral daily, days 1 to 14

SMILES | Vd [1] [L/kg] | clearance [1] [mL/min/kg] | AUC [1] [µM·h] | Cmax [1] [nM] | half-life [1] [h] | F on AUC [2] [%] | objective response rate [3] [%] | BWL (%) [4, 5] [%] | TGI (%) [4, 5] [%] | Toxicity [4, 5] | T − C [4, 5] [days] | BWL (%) [4, 6] [%] | TGI (%) [4, 6] [%] | Toxicity [4, 6] | T − C [4, 6] [days]
COc1ccc(-c2[nH]c(=O)c3cc(F)ccc3c2OCCN)cc1F.Cl [Compound 21, 4-(2-Amino-ethoxy)-7-fluoro-3-(3-fluoro-4-methoxy-phenyl)-2H-isoquinolin-1-one hydrochloride] | 6.5 | 45.4 | 10.5 | 4600 | 3.9 | 133 |  |  |  |  |  |  |  |  | 
O=C(c1cc(Cc2n[nH]c(=O)c3ccccc23)ccc1F)N1CCN(C(=O)C2CC2)CC1 [Olaparib] |  |  |  |  |  |  | 47 |  |  |  |  |  |  |  | 
Cl.NCCOc1c(-c2ccc(N3CCOCC3)c(Br)c2)[nH]c(=O)c2cc(F)ccc12 [Compound 4, 4-(2-Amino-ethoxy)-3-(3-bromo-4-morpholin-4-yl-phenyl)-7-fluoro-2H-isoquinolin-1-one hydrochloride] | 7.8 | 44.5 | 5.6 | 3000 | 1.43 | 83 |  |  |  |  |  |  |  |  | 
Cn1nnc2c(C(N)=O)ncn2c1=O [temozolomide, reference compound] |  |  |  |  |  |  |  | 2.5 | 13 | 0/7 | 1 |  |  |  | 
Cl.NCCOc1c(-c2ccc(Br)cc2)[nH]c(=O)c2c(F)c(F)ccc12 [Compound 12, 4-(2-Amino-ethoxy)-3-(4-bromo-phenyl)-7,8-difluoro-2H-isoquinolin-1-one hydrochloride] | 4.5 | 46.3 | 8.15 | 3150 | 1.77 | 109 |  |  |  |  |  |  |  |  | 
Cc1cc(-c2[nH]c(=O)c3cc(F)ccc3c2OCCN)ccc1Cl.Cl [Compound 13, 4-(2-Amino-ethoxy)-3-(4-chloro-3-methyl-phenyl)-7-fluoro-2H-isoquinolin-1-one hydrochloride] | 5.7 | 45 | 10 | 2000 | 3 | 128 |  |  |  |  |  |  |  |  | 
NCCOc1c(-c2ccc(Cl)c(Cl)c2)[nH]c(=O)c2cc(F)ccc12 [Compound 14, 4-(2-Amino-ethoxy)-3-(3,4-dichloro-phenyl)-7-fluoro-2H-isoquinolin-1-one] | 4.2 | 20.5 | 20.3 | 2800 | 3.5 | 136 |  |  |  |  |  |  |  |  | 
Cl.NCCOc1c(-c2ccc(Br)cc2)[nH]c(=O)c2cc(F)ccc12 [Compound 1, 4-(2-Amino-ethoxy)-3-(4-bromo-phenyl)-7-fluoro-2H-isoquinolin-1-one hydrochloride] | 3.6 | 12 | 27 | 6000 | 3.9 | 107 |  |  |  |  |  | 3 | 21 | 0/7 | 4
Cl.NCCOc1c(-c2ccc(Cl)cc2)[nH]c(=O)c2cc(F)ccc12 [Compound 8, 4-(2-Amino-ethoxy)-3-(4-chloro-phenyl)-7-fluoro-2H-isoquinolin-1-one hydrochloride] | 5.2 | 28.2 | 7.5 | 2850 | 3 | 74 |  |  |  |  |  |  |  |  | 
